From patent US20080312192A1, “Diaryl Urea Derivatives in the Treatment of Protein Kinase Dependent Diseases” (priority 2003, published 2008)
pIC50: −log10 of the molar value. Where a name gives a salt, the structure may show the parent alone.

What follows are molecules tested against T1, Flt-3 (Homo sapiens, UniProt P36888) (assay: Flt-3 kinase inhibition (GST-Flt-3, 33P incorporation into poly(Glu,Tyr))).
T1 construct: amino acids 563-993 of the cytoplasmic kinase domain of human Flt-3; made in house; host or cells: Sf9 insect cells (baculovirus, vector pFbacG01)
T1 sequence (P36888 563-993): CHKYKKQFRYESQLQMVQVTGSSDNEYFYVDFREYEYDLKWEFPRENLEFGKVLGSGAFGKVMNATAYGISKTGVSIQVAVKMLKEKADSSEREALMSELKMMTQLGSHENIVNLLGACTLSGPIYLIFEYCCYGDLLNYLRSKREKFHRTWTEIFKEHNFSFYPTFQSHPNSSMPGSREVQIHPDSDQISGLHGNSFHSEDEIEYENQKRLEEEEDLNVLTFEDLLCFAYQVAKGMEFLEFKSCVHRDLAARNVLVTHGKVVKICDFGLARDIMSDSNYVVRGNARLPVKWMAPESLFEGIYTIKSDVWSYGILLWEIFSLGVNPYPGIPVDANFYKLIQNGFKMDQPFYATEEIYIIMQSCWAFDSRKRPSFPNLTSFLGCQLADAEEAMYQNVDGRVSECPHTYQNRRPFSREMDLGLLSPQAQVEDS
Assay type: biochemical
Procedure: Flt-3 kinase inhibition is determined as follows: The baculovirus donor vector pFbacG01 (GIBCO) is used to generate a recombinant baculovirus expressing the amino acid region amino acids 563-993 of the cytoplasmic kinase domain of human Flt-3. The coding sequence for the cytoplasmic domain of Flt-3 is amplified by PCR from human c-DNA libraries (Clontech). The amplified DNA fragments and the pFbacG01 vector are made compatible for ligation by digestion with BamHI and HindIII. Ligation of these DNA fragments results in the baculovirus donor plasmid pFbacG01-Flt-3. The production of the viruses, the expression of proteins in Sf9 cells and the purification of the GST-fused proteins are performed as follows:
Production of virus: The baculovirus donor plasmid (pFbacG01-Flt-3) containing the Flt-3 kinase domain is transfected into the DH10Bac cell line (GIBCO) and the transfected cells are plated on selective agar plates. Colonies without insertion of the fusion sequence into the viral genome (carried by the bacteria) are blue. Single white colonies are picked and viral DNA (bacmid) is isolated from the bacteria by standard plasmid purification procedures. Sf9 or Sf21 cells (American Type Culture Collection) are then transfected in flasks with the viral DNA using Cellfectin reagent.
Protein expression in Sf9 cells: Virus containing media is collected from the transfected cell culture and used for infection to increase its titre. Virus containing media obtained after two rounds of infection is used for large-scale protein expression. For large-scale protein expression 100 cm^2 round tissue culture plates are seeded with 5×10^7 cells/plate and infected with 1 mL of virus-containing media (approx. 5 MOIs). After 3 days the cells are scraped off the plate and centrifuged at 500 rpm for 5 min. Cell pellets from 10-20, 100 cm^2 plates are resuspended in 50 mL of ice-cold lysis buffer (25 mM Tris-HCl, pH 7.5, 2 mM EDTA-1% NP-40. 1 mM DTT, 1 mM PMSF). The cells are stirred on ice for 15 min and then centrifuged at 5000 rpms for 20 min.
Purification of GST-tagged protein: The centrifuged cell lysate is loaded onto a 2 mL glutathione-sepharose column (Pharmacia) and washed three times with 10 mL of 25 mM Tris-HCl, pH 7.5, 2 mM EDTA, 1 mM DTT, 200 mM NaCl. The GST-tagged protein is then eluted by 10 applications (1 mL each) of 25 mM Tris-HCl, pH 7.5, 10 mM reduced-glutathione, 100 mM NaCl, 1 mM DTT, 10% Glycerol and stored at −70° C.
Measurement of enzyme activity: Tyrosine protein kinase assays with purified GST-Flt-3 protein are carried out in a final volume of 30 μL containing 200-1800 ng of enzyme protein (depending on the specific activity), 20 mM Tris-HCl, pH 7.6, 3 mM MnCl2, 3 mM MgCl2, 1 mM DTT, 10 μM Na3VO4, 3 μg/mL poly(Glu, Tyr) 4:1, 1% DMSO, 8.0 μM ATP and 0.1 μCi [γ^33 P] ATP. The activity is assayed in the presence or absence of inhibitors, by measuring the incorporation of ^33P from [γ^33P] ATP into the poly(Glu,Tyr) substrate. The assay (30 μL) is carried out in 96-well plates at ambient temperature for 20 min and terminated by the addition of 20 μL of 125 mM EDTA. Subsequently, 40 μL of the reaction mixture is transferred onto Immobilon-PVDF membrane (Millipore, Bedford, Mass., USA) previously soaked for 5 min with methanol, rinsed with water, then soaked for 5 min with 0.5% H3PO4 and mounted on vacuum manifold with disconnected vacuum source. After spotting all samples, vacuum is connected and each well rinsed with 200 μL 0.5% H3PO4. Membranes are removed and washed 4× on a shaker with 1.0% H3PO4, once with ethanol. Membranes are counted after drying at ambient temperature, mounting in Packard TopCount 96-well frame, and addition of 10 μL/well of Microscint™ (Packard). IC50 values are calculated by linear regression analysis of the percentage inhibition of each compound in duplicate, at four concentrations (usually 0.01, 0.1, 1 and 10 μM). One unit of protein kinase activity is defined as 1 nmole of ^33P transferred from [γ3P] […]

Row | pIC50 | SMILES
1 | 6.04 | O=C(Nc1ccc(Oc2cc(Cl)ncn2)cc1)Nc1cc(CN2CCC2)cc(C(F)(F)F)c1 [Example 1, N-[4-(6-Chloro-pyrimidin-4-yloxy)-phenyl]-N′-[3-(azetidin-1-ylmethyl)-5-trifluoromethyl-phenyl]-urea]
2 | 5.92 | CNc1cc(Oc2ccc(NC(=O)Nc3cc(CN4CCC4)cc(C(F)(F)F)c3)cc2)ncn1 [Example 2, N-[4-(6-Methylamino-pyrimidin-4-yloxy)-phenyl]-N′-(3-azetidin-1-ylmethyl-5-trifluoromethyl-phenyl)-urea]
3 | 6.29 | CC(C)N1CCN(Cc2cc(NC(=O)Nc3ccc(Oc4cc(N)ncn4)cc3)cc(C(F)(F)F)c2)CC1 [Example 8, N-[4-(6-Amino-pyrimidin-4-yloxy)-phenyl]-N′-[3-(4-isopropylpiperazin-1-ylmethyl)-5-trifluoromethyl-phenyl]-urea]
4 | 6.44 | CN1CCN(Cc2ccc(NC(=O)Nc3ccc(Oc4cc(Cl)ncn4)cc3)cc2C(F)(F)F)CC1 [Example 14, N-[4-(6-Chloro-pyrimidin-4-yloxy)-phenyl]-N′-[4-(4-methylpiperazin-1-ylmethyl)-3-trifluoromethyl-phenyl]-urea]
5 | 6.22 | CC(C)N1CCN(Cc2ccc(NC(=O)Nc3ccc(Oc4cc(Cl)ncn4)cc3)cc2C(F)(F)F)CC1 [Example 15, N-[4-(6-Chloro-pyrimidin-4-yloxy)-phenyl]-N′-[4-(4-isopropylpiperazin-1-ylmethyl)-3-trifluoromethyl-phenyl]-urea]
6 | 6.44 | CNc1cc(Oc2ccc(NC(=O)Nc3ccc(CN4CCN(C(C)C)CC4)c(C(F)(F)F)c3)cc2)ncn1 [Example 16, N-[4-(6-Methylamino-pyrimidin-4-yloxy)-phenyl]-N′-[4-(4-isopropylpiperazin-1-ylmethyl)-3-trifluoromethyl-phenyl]-urea trifluoroacetate]
7 | 6.03 | CNc1cc(Oc2ccc(NC(=O)Nc3ccc(CN4CC[N+]([O-])(C(C)C)CC4)c(C(F)(F)F)c3)cc2)ncn1 [Example 17, N-[4-(6-Methylamino-pyrimidin-4-yloxy)-phenyl]-N′-[4-(4-isopropyl-4-oxy-piperazin-1-ylmethyl)-3-trifluoromethyl-phenyl]-urea trifluoroacetate]
8 | 5.74 | CN(Cc1ccc(NC(=O)Nc2ccc(Oc3cc(Cl)ncn3)cc2)cc1C(F)(F)F)C(C)(C)C [Example 21, N-[4-(6-Chloro-pyrimidin-4-yloxy)-phenyl]-N′-[4-(methyl-^tertbutyl-amino-methyl)-3-trifluoromethyl-phenyl]-urea]
9 | 5.96 | CNc1cc(Oc2ccc(NC(=O)Nc3ccc(CN(C)C(C)(C)C)c(C(F)(F)F)c3)cc2)ncn1 [Example 34a.1]
10 | 6.08 | CN(Cc1ccc(NC(=O)Nc2ccc(Oc3cc(N)ncn3)cc2)cc1C(F)(F)F)C(C)(C)C [Example 34a.3]
11 | 6.44 | CNc1cc(Oc2ccc(NC(=O)Nc3ccc(CN4CCC4)c(C(F)(F)F)c3)cc2)ncn1 [Example 34b.1]
12 | 6.43 | Nc1cc(Oc2ccc(NC(=O)Nc3ccc(CN4CCC4)c(C(F)(F)F)c3)cc2)ncn1 [Example 34b.3]
13 | 6.27 | CNc1cc(Oc2ccc(NC(=O)Nc3ccc(CN4CCN(C(C)(C)C)CC4)c(C(F)(F)F)c3)cc2)ncn1 [Example 34c.1]
14 | 6.46 | CC(C)(C)N1CCN(Cc2ccc(NC(=O)Nc3ccc(Oc4cc(N)ncn4)cc3)cc2C(F)(F)F)CC1 [Example 34c.3]
15 | 6.17 | CNc1cc(Oc2ccc(NC(=O)Nc3ccc(Cn4cnc(C)c4C)c(C(F)(F)F)c3)cc2)ncn1 [Example 34d.1]
16 | 6.54 | Cc1ncn(Cc2ccc(NC(=O)Nc3ccc(Oc4cc(N)ncn4)cc3)cc2C(F)(F)F)c1C [Example 34d.3]
17 | 6.80 | CNc1cc(Oc2ccc(NC(=O)Nc3ccc(Cn4ccnc4C)c(C(F)(F)F)c3)cc2)ncn1 [Example 34e.1]
18 | 7.10 | Cc1nccn1Cc1ccc(NC(=O)Nc2ccc(Oc3cc(N)ncn3)cc2)cc1C(F)(F)F [Example 34e.3]

Row | pIC50 | SMILES
19 | 6.52 | CCN1CCN(Cc2ccc(NC(=O)Nc3ccc(Oc4cc(NC)ncn4)cc3)cc2C)CC1 [Example 34g.1]
20 | 6.42 | CCN1CCN(Cc2ccc(NC(=O)Nc3ccc(Oc4cc(N)ncn4)cc3)cc2C)CC1 [Example 34g.3]
21 | 6.60 | CNc1cc(Oc2ccc(NC(=O)Nc3ccc(CN4CCCC4)c(C(F)(F)F)c3)cc2)ncn1 [Example 34j.1]
22 | 6.55 | Nc1cc(Oc2ccc(NC(=O)Nc3ccc(CN4CCCC4)c(C(F)(F)F)c3)cc2)ncn1 [Example 34j.3]
23 | 6.89 | CNc1cc(Oc2ccc(NC(=O)Nc3ccc(CN4CCOCC4)c(C(F)(F)F)c3)cc2)ncn1 [Example 34k.1]
24 | 7.00 | Nc1cc(Oc2ccc(NC(=O)Nc3ccc(CN4CCOCC4)c(C(F)(F)F)c3)cc2)ncn1 [Example 34k.3]
25 | 6.21 | CNc1cc(Oc2ccc(NC(=O)Nc3ccc(CN(C)C)c(C(F)(F)F)c3)cc2)ncn1 [Example 34l.1]
26 | 6.40 | CCN(CC)Cc1ccc(NC(=O)Nc2ccc(Oc3cc(NC)ncn3)cc2)cc1C(F)(F)F [Example 34m.1]
27 | 6.70 | CCN(CC)Cc1ccc(NC(=O)Nc2ccc(Oc3cc(N)ncn3)cc2)cc1C(F)(F)F [Example 34m.3]
28 | 6.70 | CN(C)CCCN(C)Cc1ccc(NC(=O)Nc2ccc(Oc3cc(N)ncn3)cc2)cc1C(F)(F)F [Example 34n.3]
29 | 6.23 | CNc1cc(Oc2ccc(NC(=O)Nc3ccc(CN4CCN(Cc5ccc(OC)cc5)CC4)c(C(F)(F)F)c3)cc2)ncn1 [Example 34p.1]
30 | 6.62 | Nc1cc(Oc2ccc(NC(=O)Nc3ccc(N4CCC(N5CCCCC5)CC4)c(C(F)(F)F)c3)cc2)ncn1 [Example 34s.2]
31 | 6.54 | CC(C)(C)CN1CCN(Cc2ccc(NC(=O)Nc3ccc(Oc4cc(N)ncn4)cc3)cc2C(F)(F)F)CC1 [Example 34t.2]
32 | 5.82 | CC(C)(C)CN1CCN(c2ccc(NC(=O)Nc3ccc(Oc4cc(N)ncn4)cc3)cc2C(F)(F)F)CC1 [Example 34u.2]
33 | 6.45 | NC(=O)c1cc(NC(=O)Nc2ccc(Oc3cc(N)ncn3)cc2)cc(C(F)(F)F)c1 [Example 38, 3-{3-[4-(6-Amino-pyrimidin-4-yloxy)-phenyl]-ureido}-5-trifluoromethyl-benzamide]
34 | 6.38 | CNC(=O)c1cc(NC(=O)Nc2ccc(Oc3cc(NC)ncn3)cc2)cc(C(F)(F)F)c1 [Example 41, 3-{3-[4-(6-Methylamino-pyrimidin-4-yloxy)-phenyl]-ureido}-N-methyl-5-trifluoromethyl-benzamide]
35 | 6.80 | CNC(=O)c1cc(NC(=O)Nc2ccc(Oc3cc(N)ncn3)cc2)cc(C(F)(F)F)c1 [Example 43, 3-{3-[4-(6-Amino-pyrimidin-4-yloxy)-phenyl]-ureido}-N-methyl-5-trifluoromethyl-benzamide]
